In the series the test system is NSAID-induced gastric ulcers. The series is described as follows: NSAID-Induced Ulcers in the Sprague-Dawley Rat (gastric ulcer assay). It is filed as in vivo. Details: Inhibition of Gastric Ulcers: unit not given here. The source says: When a selected NSAID, for example, indomethacin, is combined with cyclo-(N-methyl-Ala-Tyr-D-Trp-Lys-Val-Phe) according to the present invention, the following results are obtained from the well-established gastric ulcer assay in the Sprague-Dawley male rat is described below:
Protocol: NSAID-Induced Ulcers in the Sprague-Dawley Rat
Twenty-four (24) hour fasted, male, Sprague-Dawley rats, 130 to 150 gms. each, are randomized into groups for assay. The animals are housed to wire-bottom cages without bedding and allowed free-access to water throughout the fasting and experimental periods. Ulcers are then induced by the peroral administration of NSAID at dose levels predetermined to provoke a similar number of ulcers within 4 hours of additional fasting*. Each NSAID is prepared in 0.5% methyl cellulose vehicle and given at a volume of 10 ml/kg rounded to the nearest 0.1 ml. Either 0.5% methylcellulose vehicle or compound A is co-administered perorally with the NSAID bringing the total volume to 20 ml/kg rounded to the nearest 0.2 ml.
*For example: Indomethacin-20 mg/kg; Naproxen-50 mg/kg; Ibuprofen-100 mg/kg; Diclofenac-75 mg/kg.
Four (4) hours after the administration of NSAID+vehicle, or NSAID+compound A, the animals are sacrificed by CO2 inhalation, the stomachs removed, excised along the inner curvature, washed carefully with cool tap water and placed in 0.9% saline. When all groups have been processed, the mucosal region of the stomachs are examined under a magnifying lens and scored according to the total number of lesions present. Group scores represent the mean score of animals in that group. P values are determined by Student's "t" test, comparing the ulcer scores of individual rats given NSAID+compound A to those dosed with NSAID+vehicle only.

Setting [1] is: Compound A 0.01 mg/kg p.o. co-administered with Diclofenac 75 mg/kg p.o., 4 h.
Setting [2] is: Compound A 0.01 mg/kg p.o. co-administered with Ibuprofen 100 mg/kg p.o., 4 h.
[3] abbreviates: Compound A 0.01 mg/kg p.o. co-administered with Indomethacin 20 mg/kg p.o., 4 h.
Setting [4] is: Compound A 0.01 mg/kg p.o. co-administered with Naproxen 50 mg/kg p.o., 4 h.
[5] abbreviates: Compound A 0.1 mg/kg p.o. co-administered with Diclofenac 75 mg/kg p.o., 4 h.
Where [6] appears, read: Compound A 0.1 mg/kg p.o. co-administered with Ibuprofen 100 mg/kg p.o., 4 h.
Setting [7] is: Compound A 0.1 mg/kg p.o. co-administered with Indomethacin 20 mg/kg p.o., 4 h.
Setting [8] is: Compound A 0.1 mg/kg p.o. co-administered with Naproxen 50 mg/kg p.o., 4 h.
The mark [9] stands for this setting: Compound A 1.0 mg/kg p.o. co-administered with Diclofenac 75 mg/kg p.o., 4 h.
Where [10] appears, read: Compound A 1.0 mg/kg p.o. co-administered with Ibuprofen 100 mg/kg p.o., 4 h.
Setting [11] is: Compound A 1.0 mg/kg p.o. co-administered with Indomethacin 20 mg/kg p.o., 4 h.
[12] abbreviates: Compound A 1.0 mg/kg p.o. co-administered with Naproxen 50 mg/kg p.o., 4 h.

As to “cyclo-(N-methyl-Ala-Tyr-D-Trp-Lys-Val-Phe) [Compound A]”, the “Inhibition of Gastric Ulcers” value reads like this: under setting [1], 0; under setting [2], 36.4; under setting [3], 0; under setting [4], 0; under setting [5], 47.9; under setting [6], 87.6. Further, the “Inhibition of Gastric Ulcers” value by setting is: under setting [7], 50.3; under setting [8], 67.7; under setting [9], 99.3; under setting [10], 92.3; under setting [11], 83.4; under setting [12], 83.9. Further, the “No. of Gastric Ulcers M ± S.E.M.” value was determined as 18.7 ± 2.0 under setting [1]; 8.2 ± 1.0 under setting [2]; 18.6 ± 4.4 under setting [3]; 14.0 ± 3.0 under setting [4]; 7.3 ± 2.3 under setting [5]; 1.6 ± 0.6 under setting [6]. Moreover, the “No. of Gastric Ulcers M ± S.E.M.” value worked out at 9.0 ± 1.9 under setting [7]; 5.0 ± 2.5 under setting [8]; 0.1 ± 0.1 under setting [9]; 1.0 ± 0.5 under setting [10]; 3.0 ± 1.3 under setting [11]; 2.5 ± 1.4 under setting [12].
For the compound `COc1ccc2cc([C@H](C)C(=O)O)ccc2c1` [Naproxen, naproxen, reference compound], under “Naproxen 50 mg/kg p.o. + vehicle (control), 4 h”, the “Inhibition of Gastric Ulcers” value amounted to 0.
For the compound `CC(C)Cc1ccc(C(C)C(=O)O)cc1` (stereo not drawn) [Ibuprofen, ibuprofen, reference compound], the “Inhibition of Gastric Ulcers” value (Ibuprofen 100 mg/kg p.o. + vehicle (control), 4 h) came out at 0.
Take `O=C(O)Cc1ccccc1Nc1c(Cl)cccc1Cl` [Diclofenac, diclofenac, reference compound]: the “Inhibition of Gastric Ulcers” value (Diclofenac 75 mg/kg p.o. + vehicle (control), 4 h) is listed as 0. For the same compound, for the setting “Diclofenac 75 mg/kg p.o. + vehicle (control), fasted male rats, 4 h after dosing”, the “No. of Gastric Ulcers M ± S.E.M.” value worked out at 14.0 ± 1.6.
Consider `COc1ccc2c(c1)c(CC(=O)O)c(C)n2C(=O)c1ccc(Cl)cc1` [Indomethacin, indomethacin, reference compound], for which the “Inhibition of Gastric Ulcers” value (Indomethacin 20 mg/kg p.o. + vehicle (control), 4 h) was found to be 0. Besides, under “Indomethacin 20 mg/kg p.o. + vehicle (control), fasted male rats, 4 h after dosing”, the “No. of Gastric Ulcers M ± S.E.M.” value is 18.1 ± 1.6.

The values are drawn from US4474766A, “Anti-inflammatory/analgesic combination of cyclo-(N-methyl-Ala-Tyr-D-Trp-Lys-Val-Phe) and a selected non-steroidal anti-inflammatory drug (NSAID)” (Merck & Co., Inc., priority 1983, dated 1984).
